Test results as given in the supplement of paper PMC10307832.

Assays:
Assay in all cases: relative viability (nuclei count vs DMSO), 5 days (fraction); higher = more cells survive
[1] = compound: CC1(C)CCC(CN2CCN(c3ccc(C(=O)NS(=O)(=O)c4ccc(NCC5CCOCC5)c([N+](=O)[O-])c4)c(Oc4cnc5[nH]ccc5c4)c3)CC2)=C(c2ccc(Cl)cc2)C1 [Venetoclax]
Method in brief: (§1)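 Only plates meeting two conditions passed: control CV below 25% and at least one doubling. Lung cancer cell lines, kept overnight at 37 °C in 1536-well plates, were pinned with five library-drug doses (not always all listed) √10 apart on vehicle-anchored plates and grown 5 days without medium change. A one-step fix, permeabilisation and Hoechst stain preceded 4× imaging and MetaXpress nuclear counting. Viability equals treated-well nuclei divided by vehicle-well nuclei, as the median over plates.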

[2] = compound: Cn1cnc2c(F)c(Nc3ccc(Br)cc3Cl)c(C(=O)NOCCO)cc21 [Selumetinib]
Method in brief: as §1

[3] = compound: CC1(C)CCC(CN2CCN(c3ccc(C(=O)NS(=O)(=O)c4ccc(NCC5CCOCC5)c([N+](=O)[O-])c4)c(Oc4cnc5[nH]ccc5c4)c3)CC2)=C(c2ccc(Cl)cc2)C1 [Venetoclax] + Cc1nc(NC(=O)N2CCC[C@H]2C(N)=O)sc1-c1ccnc(C(C)(C)C(F)(F)F)c1 [Alpelisib] (partner 2 µM)
Method in brief: (§2)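 Each reported value is a median over duplicate plates. It expresses relative viability: treated-well nuclei count divided by vehicle-well nuclei count. Lung cancer cell lines in 1536-well plates were dosed by pin tool a day after seeding, alone with one drug or with a fixed anchor-drug dose plus five library-drug doses (not always all listed) in √10 steps, and nuclei were counted after 5 days.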

[4] = compound: Cn1cnc2c(F)c(Nc3ccc(Br)cc3Cl)c(C(=O)NOCCO)cc21 [Selumetinib] + Nc1nc2[nH]cc(CCc3ccc(C(=O)N[C@@H](CCC(=O)O)C(=O)O)cc3)c2c(=O)[nH]1 [Pemetrexed] (partner 0.2 µM)
Method in brief: as §2

| Cell Line | relative viability ([1]; 0.01 µM) | relative viability ([1]; 0.03162 µM) | relative viability ([1]; 0.1 µM) | relative viability ([1]; 0.3162 µM) | relative viability ([1]; 1 µM) | relative viability ([2]; 0.02 µM) | relative viability ([2]; 0.06325 µM) | relative viability ([2]; 0.2 µM) | relative viability ([2]; 0.6325 µM) | relative viability ([3]; first compound 0.01 µM) | relative viability ([3]; first compound 0.03162 µM) | relative viability ([3]; first compound 0.1 µM) | relative viability ([3]; first compound 0.3162 µM) | relative viability ([3]; first compound 1 µM) | relative viability ([4]; first compound 0.02 µM) | relative viability ([4]; first compound 0.06325 µM) | relative viability ([4]; first compound 0.2 µM) | relative viability ([4]; first compound 0.6325 µM) |
| --- | --- | --- | --- | --- | --- | --- | --- | --- | --- | --- | --- | --- | --- | --- | --- | --- | --- | --- |
| NCI-H2126 | 1 | 1.07 | 0.992 | 0.996 | 0.953 | 0.932 | 0.883 | 0.857 | 0.77 | 0.807 | 0.728 | 0.759 | 0.819 | 0.796 | 0.627 | 0.612 | 0.684 | 0.568 |
| COR-L23 | 0.979 | 1.03 | 0.967 | 0.999 | 0.911 | 1.09 | 1.03 | 1.07 | 0.99 | 0.7 | 0.753 | 0.745 | 0.766 | 0.741 | 0.202 | 0.217 | 0.21 | 0.194 |
| BEN | 1.03 | 1.09 | 0.887 | 0.999 | 0.941 | 0.934 | 1.02 | 0.863 | 0.938 | 0.976 | 1.07 | 0.756 | 1.06 | 1.01 | 0.806 | 0.765 | 0.697 | 0.888 |
| LK-2 | 0.947 | 1.11 | 0.929 | 0.938 | 1.02 | 1.08 | 1.05 | 0.88 | 1.04 | 0.993 | 1.28 | 1.12 | 1.19 | 1.06 | 0.282 | 0.349 | 0.352 | 0.375 |
| NCI-H460 | 0.98 | 0.965 | 0.941 | 0.989 | 0.923 | 0.963 | 0.801 | 0.823 | 0.545 | 0.539 | 0.446 | 0.446 | 0.472 | 0.447 | 0.0568 | 0.082 | 0.0617 | 0.0698 |
| NCI-H647 | 1.06 | 0.991 | 0.798 | 1 | 0.884 | 0.936 | 0.797 | 0.809 | 0.793 | 0.703 | 1.05 |  | 1 | 1.01 | 0.177 | 0.178 | 0.19 | 0.173 |
| NCI-H1734 | 0.906 | 1.03 | 0.868 | 0.957 | 0.912 | 1 | 0.936 | 0.928 | 0.919 | 0.682 | 0.732 | 0.624 | 0.628 | 0.689 | 0.387 | 0.373 | 0.404 | 0.418 |
| NCI-H2023 | 0.932 | 1.05 | 1.05 | 0.953 | 0.859 | 0.987 | 0.841 | 0.862 | 0.758 | 0.574 | 0.573 | 0.544 | 0.553 | 0.551 | 0.247 | 0.137 | 0.239 | 0.195 |
| NCI-H2009 | 1.05 | 1.01 | 0.991 | 0.974 | 0.882 | 0.925 | 0.639 | 0.574 | 0.385 | 1.1 | 1.15 | 1.16 | 1.11 | 1.07 | 1.03 | 0.945 | 0.792 | 0.45 |
| HCC-78 | 1.1 | 1.21 | 1.01 | 0.959 | 0.942 | 0.924 | 0.853 | 0.802 | 0.91 | 0.371 | 0.303 | 0.313 | 0.326 | 0.361 | 0.836 | 0.892 | 0.918 | 0.903 |
